{
  "source": "patent US10555987B2",
  "about": "“GHRH agonists for the treatment of ischemic disorders” (UNIVERSITY OF MIAMI, priority 2012, dated 2020)",
  "key": {"GHRH receptor [1]": {"molecular_target": "T1, GHRH receptor (Homo sapiens, UniProt Q02643)", "T1 sequence (Q02643 23-423)": "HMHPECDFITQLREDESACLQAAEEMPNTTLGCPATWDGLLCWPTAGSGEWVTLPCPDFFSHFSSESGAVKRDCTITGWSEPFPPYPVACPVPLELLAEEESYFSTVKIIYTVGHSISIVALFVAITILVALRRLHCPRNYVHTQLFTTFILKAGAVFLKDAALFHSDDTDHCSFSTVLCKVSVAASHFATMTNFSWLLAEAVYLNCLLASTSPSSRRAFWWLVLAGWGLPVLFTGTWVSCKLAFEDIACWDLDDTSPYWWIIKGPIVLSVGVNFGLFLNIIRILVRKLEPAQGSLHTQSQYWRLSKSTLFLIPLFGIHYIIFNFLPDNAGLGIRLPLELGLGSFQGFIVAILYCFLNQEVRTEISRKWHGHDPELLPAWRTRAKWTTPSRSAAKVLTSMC", "assay": "GHRH receptor binding, competition with 125I-labeled JV-1-42, human pituitary membrane homogenates (Table 5)", "set-up": "Normal human pituitaries were purchased from the National Hormone and Peptide Program; tissue National Hormone and Peptide Program (A.F. Parlow, Harbor-UCLA Medical Center, Torrance, Calif.); host or cells: normal human pituitary, membrane fraction", "method": "Normal human pituitaries were purchased from the National Hormone and Peptide Program (A.F. Parlow, Los Angeles, County Harbor-UCLA Medical Center, Torrance, Calif.). Briefly, in competitive binding analysis, ^125I-labeled JV-1-42 ([…]) was displaced by GHRH agonists at 10^−6 to 10^−12 M.\nThe final binding affinities were expressed as IC50 values and were calculated by using the LIGAND PC computerized curve-fitting program of Munson and Rodbard as modified by McPherson."}, "[2]": {"test_system": "myocardial infarction (Fisher-344 rats)", "assay": "Hemodynamic analysis (pressure-volume loops), body and heart weight after MI, compared to JI-38 (Example 15, Table 16)", "format": "in vivo, rat", "set-up": "key to ESP (End-Systolic Pressure) / EDP (End-Diastolic Pressure) / ESV (End-Systolic Volume) / PRSW (Preload Recruitable Stroke Work) / Ees (End-systolic Elastance) / dP/dt max (peak rate of the pressure rise) / dP/dt max_EDV / dP/dt min / TAU (relaxation time constant calculated by Weiss method) / SV (Stroke Volume) / CO (Cardiac Output) / SW (Stroke Work) / EF / Ea/Ees / Ea (arterial Elastance): ↓: downward arrow denotes lower than JI-38; ↑: upward arrow denotes greater than JI-38; =denotes same as JI-38; ⬇⬇: double arrow denotes greater effect; ⬆⬆: double arrow denotes greater effect", "settings": "rat MI model, s.c. twice daily; pressure-volume loops; expressed in comparison to JI-38", "method": "Rats were anesthetized by intramuscular injection of a mixture of ketamine (100 mg/kg), xylazine (20 mg/kg) and acepromazine (10 mg/kg). A 2-F micromanometer tipped catheter (SPR-838, Millar Instruments, Houston, Tex.) was inserted into the right carotid artery and advanced retrograde into the left ventricle. Measurements were calibrated by injecting a hypertonic saline (15%) bolus to determine extra-ventricular conductance; relative volume units were converted to actual volume using the cuvette calibration method. All analyses were performed using PVAN 3.0 software (Millar Instruments, Houston, Tex.).\n(§1) Myocardial infarction (MI) was induced by permanent ligation of the left coronary artery in female 6-month-old Fisher-344 rats. Following experimental myocardial infarction (MI), rats were randomly assigned to receive either placebo, JI-38, or one of the following new analogs of GHRH: MR-30 l(P-21301), MR-303(P-21303), MR-356(P-20356), MR-502(25502), MR-350(P-20350), MR-36 l(P-20361), MR-367(P-20367), MR-403(P-27403), MR-404(P-27404), and MR-409(P-27409) (10 rats per each group). The GHRH peptide agonists were adminsistered starting 2 hours post-surgery, 1 week, 2 week, and 4 week intervals. All treatment was given subcutaneously twice daily. Cardiac performance was assessed by serial echocardiography and hemodynamic analysis derived from pressure-volume loops as described before.\nThe hemodynamic studies are shown in FIGS. 16-33 and the results are summarized in Table 16 (results were expressed in comparison to JI-38; downward arrow denotes lower than JI-38; upward arrow denotes greater than JI-38; =denotes same as JI-38; and double arrow denotes greater effect)."}, "[3]": {"test_system": "myocardial infarction (Fisher-344 rats)", "assay": "Serial echocardiography after MI, compared to JI-38 (Example 15, Table 15)", "format": "in vivo, rat", "set-up": "key to LVEDD: Left Ventricular End Diastolic Diameter / LVESD: Left Ventricular End Systolic Diameter / VD: Ventricular Diastole / VS: Ventricular Systole / EF: Ejection Fraction / FS: Fraction Shortening: ↓: downward arrow denotes lower than JI-38; ↑: upward arrow denotes greater than JI-38; =denotes same as JI-38; ⬇⬇: double arrow denotes greater effect; ⬆⬆: double arrow denotes greater effect", "settings": "in comparison to JI-38", "method": "Echocardiographic measurements were obtained at baseline, 2 days, 1, 2 and 4 weeks. Echocardiographic assessments were performed in anesthetized rats (2% isoflurane inhalation) using a Vevo-770 echocardiogram (Visual Sonics Inc., Toronto, Ontario, Canada) equipped with a 17.5-MHz transducer. Cardiac dimensions: LV end diastolic (LVEDD), end systolic (LVESD) diameters and fractional shortening (FS) were recorded from M-mode images using averaged measurements from 3 to 5 consecutive cardiac cycles according to the American Society of Echocardiography. Ejection fraction (EF) was calculated from bi-dimensional long-axis parasternal views taken through the infarcted area. All images were analyzed using Vevo 770 3.0.0 software (Visual Sonics Inc., Toronto, Ontario, Canada).\nas §1\nThe echocardiographic experiments are shown in FIGS. 10-15 and the results are summarized in Table 15 (results were expressed in comparison to JI-38; downward arrow denotes lower than JI-38; upward arrow denotes greater than JI-38; =denotes same as JI-38; and double arrow denotes greater effect)."}, "GHRH receptor [4]": {"molecular_target": "T1, GHRH receptor", "assay": "GHRH receptor binding, competition with 125I-labeled JV-1-42, human pituitary membrane homogenates (Table 7)", "set-up": "Normal human pituitaries were purchased from the National Hormone and Peptide Program; tissue National Hormone and Peptide Program (A.F. Parlow, Harbor-UCLA Medical Center, Torrance, Calif.); host or cells: normal human pituitary, membrane fraction", "from_the_text": "Normal human pituitaries were purchased from the National Hormone and Peptide Program (A.F. Parlow, Los Angeles, County Harbor-UCLA Medical Center, Torrance, Calif.)."}, "GH release": {"test_system": "GH release", "assay": "In vivo endocrine activity, GH release after subcutaneous administration (Table 9)", "settings": "rat; for GH releasing potency relative to JI-38 (=1): subcutaneous (s.c.) injection", "method": "Subcutaneous Administration. Adult male rats were used and anesthetized with pentobarbital (6 mg/100 g, b.w.), by i.p. injection. […] Blood samples were taken from the jugular vein 5, 15 and/or 30 minutes after the injection. The blood samples were centrifuged, plasma was removed and the GH level was measured byELISA. The results are summarized in terms of potency in Table 9."}},
  "note": "Non-standard residues stand in square brackets, D forms with d. Residues, ends and D or L forms follow the SMILES beside them. *: point of attachment. Desaminotyrosyl = O=C(CCc1ccc(O)cc1)*; Agmatine = N=C(N)NCCCCN*; Nle = CCCC[C@H](N)C(=O)O; Orn = NCCC[C@H](N)C(=O)O; Abu = CC[C@H](N)C(=O)O",
  "data": [
    {"smiles": "CCCC[C@H](NC(=O)[C@@H](NC(=O)[C@H](CC(=O)O)NC(=O)[C@H](CCC(N)=O)NC(=O)[C@H](CC(C)C)NC(=O)[C@H](CC(C)C)NC(=O)[C@H](CCCN)NC(=O)[C@H](CCCNC(=N)N)NC(=O)[C@H](C)NC(=O)[C@H](CO)NC(=O)[C@H](CC(C)C)NC(=O)[C@H](CCC(N)=O)NC(=O)[C@H](CC)NC(=O)[C@H](CC(C)C)NC(=O)[C@@H](NC(=O)[C@H](CCCN)NC(=O)[C@H](CCCNC(=N)N)NC(=O)[C@H](Cc1ccc(O)cc1)NC(=O)[C@H](CO)NC(=O)[C@H](CCC(N)=O)NC(=O)[C@@H](NC(=O)[C@H](Cc1ccccc1)NC(=O)[C@@H](NC(=O)[C@H](C)NC(=O)[C@H](CC(=O)O)NC(=O)[C@@H](C)NC(=O)CCc1ccc(O)cc1)[C@@H](C)CC)[C@@H](C)O)C(C)C)[C@@H](C)CC)C(=O)N[C@@H](CC(=O)O)C(=O)NCCCCNC(=N)N", "note": "[Peptide P-20350, [Dat^1, D-Ala^2, Gln^8, Orn^12, Abu^15, Orn^21, Nle^27, Asp^28, Agm^29]hGHRH(1-29) NH2] (Desaminotyrosyl-[dA]DAIFTQSYR[Orn]VL[Abu]QLSAR[Orn]LLQDI[Nle]D-Agmatine)", "values": [
      {"measurement": "IC50", "setting": "GHRH receptor [1]; 125I-JV-1-42, human pituitary membranes, Table 5", "value": 0.04, "unit": "nM"},
      {"measurement": "Relative affinity (Binding potency) vs GHRH", "setting": "GHRH receptor [1]; GHRH(1-29) = 1, Table 5", "value": 101.5},
      {"measurement": "Relative affinity (Binding potency) vs JI-38", "setting": "GHRH receptor [1]; JI-38 = 1, Table 5", "value": 42.7},
      {"measurement": "CO (Cardiac Output)", "setting": "[2]", "value": "↑"},
      {"measurement": "EDP (End-Diastolic Pressure)", "setting": "[2]", "value": "↑"},
      {"measurement": "EF", "setting": "[2]", "value": "↑"},
      {"measurement": "ESP (End-Systolic Pressure)", "setting": "[2]", "value": "↑"},
      {"measurement": "ESV (End-Systolic Volume)", "setting": "[2]", "value": "="},
      {"measurement": "Ea (arterial Elastance)", "setting": "[2]", "value": "="},
      {"measurement": "Ea/Ees", "setting": "[2]", "value": "="},
      {"measurement": "Ees (End-systolic Elastance)", "setting": "[2]", "value": "="},
      {"measurement": "PRSW (Preload Recruitable Stroke Work)", "setting": "[2]", "value": "="},
      {"measurement": "SV (Stroke Volume)", "setting": "[2]", "value": "="},
      {"measurement": "SW (Stroke Work)", "setting": "[2]", "value": "↓"},
      {"measurement": "TAU (relaxation time constant calculated by Weiss method)", "setting": "[2]", "value": "="},
      {"measurement": "dP/dt max (peak rate of the pressure rise)", "setting": "[2]", "value": "="},
      {"measurement": "dP/dt max_EDV", "setting": "[2]", "value": "="},
      {"measurement": "dP/dt min", "setting": "[2]", "value": "="},
      {"measurement": "EF: Ejection Fraction", "setting": "[3]", "value": "="},
      {"measurement": "FS: Fraction Shortening", "setting": "[3]", "value": "="},
      {"measurement": "LVEDD: Left Ventricular End Diastolic Diameter", "setting": "[3]", "value": "↓"},
      {"measurement": "LVESD: Left Ventricular End Systolic Diameter", "setting": "[3]", "value": "="},
      {"measurement": "VD: Ventricular Diastole", "setting": "[3]", "value": "="},
      {"measurement": "VS: Ventricular Systole", "setting": "[3]", "value": "="},
      {"measurement": "IC50", "setting": "GHRH receptor [4]; 125I-JV-1-42, human pituitary membranes, Table 7", "value": 0.52, "unit": "nM"},
      {"measurement": "Relative affinity (Binding potency) vs JI-38", "setting": "GHRH receptor [4]; JI-38 = 1, Table 7", "value": 8.37},
      {"measurement": "Stimulation of growth hormone levels after subcutaneous administration (in words)", "setting": "GH release; s.c.", "value": "stimulated greater growth hormone levels than hGHRH or JI-38"},
      {"measurement": "GH releasing potency relative to JI-38 (=1)", "setting": "GH release; 15 min after", "value": 1.53},
      {"measurement": "GH releasing potency relative to JI-38 (=1)", "setting": "GH release; 30 min after", "value": 1.17}
    ]}
  ]
}
